Measured values: publication PMC8146637, “Enhanced Bioavailability and Efficacy of Silymarin Solid Dispersion in Rats with Acetaminophen-Induced Hepatotoxicity” (Pharmaceutics, 2021)

Experiments:
[1] = Intestinal permeability of silybin, Ussing chamber; conditions: male, Wistar, rat, pH 7.4
Experimental: Male Wistar rats weighing 225–270 g (eight weeks old, n = 28) were purchased from Samtako Co. (Osan, Korea). Rats were housed in a 12-h light/dark cycle, and food and water were supplied ad libitum for one week prior to animal studies. […] Rats were fasted for 16 h, but had free access to water before study commencement. […] A proximal jejunum section (approximately 10 cm) was excised and washed in prewarmed HBSS (pH 7.4). Segments were mounted on a tissue holder of a Navicyte Easy Mount Ussing Chamber (Warner Instruments, Holliston, MA, USA), with a surface area of 0.76 cm², and acclimated in HBSS for 15 min with continuous oxygenation (95% O₂/5% CO₂ gas). […]
To investigate whether efflux transporters were involved in this process, an apical to basal (A to B) and a basal to apical (B to A) transport of 20 μM silybin in the presence of representative inhibitors of P-gp, MRPs, and BCRPs such as 20 μM cyclosporine A (CsA), 100 μM MK-571, and 20 μM fumitremorgin C (FTC), respectively, were measured in a proximal jejunum section from control rats (n = 4) [45, 46]. The effects of TPGS (0.01–1 mg/mL) on silybin permeability were also measured in a proximal jejunum section from control rats (n = 4) using the above method. […]

[2] = Effect of various excipients on silymarin solubility; assay type: physicochemical
Experimental: The effect of various excipients on the silymarin solubility was measured. […] Mixtures were centrifuged at 16,000× g for 10 min and supernatants filtered through a membrane filter (pore size; 0.22 μm). Filtrates were diluted in 85% acetonitrile and silybin concentrations analyzed using a liquid chromatography-tandem mass spectrometry (LC-MS/MS) system.

rat jejunal segments = test: Lucifer yellow permeability (intestinal integrity), Ussing chamber; assay type: in vitro ADME
Experimental: Segments were mounted on a tissue holder of a […] […] Lucifer yellow fluorescence in 200 μL sample aliquots was measured using a fluorescence spectrophotometer (Infinite 200 PRO, Tecan, Switzerland) at an excitation wavelength of 425 nm and emission wavelength of 535 nm.

[3] = in vivo; cited from earlier work
[4] = Liver distribution of silybin after repeated oral administration in APAP-induced hepatotoxic rats; conditions: rat, in vivo
Experimental: To investigate the liver distribution of silymarin and silymarin-SD, blood samples were collected from the abdominal artery at 0.5, 1, 2, 4, and 24 h after the repeated oral administration of silymarin (20 mg/kg as silybin, n = 20) or silymarin-SD (20 mg/kg as silybin, n = 20), according to the dosing schedule. Immediately after blood sampling, the liver was excised, rinsed in saline, and homogenized in nine volumes of saline, using a tissue homogenizer. Aliquots (50 μL) of 10% liver homogenate samples were stored at −80 °C for silybin assay.
Silybin concentrations in plasma and 10% liver homogenate samples were analyzed. Samples (100 μL) were added to 300 μL IS (naringenin, 20 ng/mL in acetonitrile) and the mixture was vigorously mixed for 10 min, followed by centrifugation at 16,000× g for 5 min. Supernatant aliquots (5 μL) were directly injected into an LC-MS/MS system.

| Compound | increase in silymarin solubility in the presence of excipient [2] | further results |
| --- | --- | --- |
| COc1cc(C2Oc3cc([C@H]4Oc5cc(O)cc(O)c5C(=O)[C@@H]4O)ccc3OC2CO)ccc1O (stereo partly shown) [silybin, Silybin] |  | efflux ratio at 2 h, 20 μM [1]: 5.8 |
| hydroxypropyl cellulose [HPC] | less than 1.5 fold |  |
| polyvinylpyrrolidone [PVP] | highest increase |  |
| Poloxamer 407 | 2~3 fold |  |
| Lucifer yellow [reference compound] |  | Papp,AB of Lucifer yellow (rat jejunal segments; intestinal segment of APAP-induced hepatotoxic rats): 0.28 ×10⁻⁶ cm/s |
| Tween 80 | 2~3 fold |  |
| pluronic F127 | 2~3 fold |  |
| Silymarin |  | bioavailability [3]: 23–47%; time course of liver silybin concentration [4]: decreased sharply for 4 h; Papp,AB of Lucifer yellow in the presence of silymarin or silymarin-SD (rat jejunal segments): not different |
